Assay [1] is described as follows: Competitive inhibition of bovine pancreatic RNase A type 12-A assessed as degradation of yeast tRNA preincubated for 10 mins before addition of the enzyme by double reciprocal plot analysis. Set-up: species or system Bos taurus.
Assay [2] in a line: Competitive inhibition of bovine pancreatic RNase A type 12-A by Dixon plot analysis. The arrangement: species or system Bos taurus.
For assay [3], the target named is T1, Ribonuclease pancreatic (Bos taurus, UniProt P61823).
T1 sequence (P61823 whole entry): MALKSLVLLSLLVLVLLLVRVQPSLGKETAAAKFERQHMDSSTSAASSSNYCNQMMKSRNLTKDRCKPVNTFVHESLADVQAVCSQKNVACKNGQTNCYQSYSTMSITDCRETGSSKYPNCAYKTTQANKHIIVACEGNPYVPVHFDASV
Briefly: Inhibition of bovine pancreatic RNase A.

For assay [4], the species on record is Bos taurus. Description: Competitive inhibition of bovine pancreatic RNase A type 12-A assessed as degradation of yeast tRNA at 50 uM preincubated for 10 mins before addition of the enzyme by double reciprocal plot analysis.
Assay [5] has as its target Angiogenin (Homo sapiens, UniProt P03950). Description: Inhibition of ANG.
Assay [6] deals with T2, Non-secretory ribonuclease (Homo sapiens, UniProt P10153).
T2 sequence (P10153 whole entry): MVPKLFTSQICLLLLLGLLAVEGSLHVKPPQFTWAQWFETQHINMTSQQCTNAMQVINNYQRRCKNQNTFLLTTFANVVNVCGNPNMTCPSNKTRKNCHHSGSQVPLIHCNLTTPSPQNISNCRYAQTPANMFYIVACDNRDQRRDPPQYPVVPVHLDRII
Description: Inhibition of EDN.

Assay [7] has as its target Ribonuclease pancreatic (Bos taurus) (UniProt P61823). Briefly: Inhibition of RNase A.

Angiogenin, sequence (P03950 whole entry): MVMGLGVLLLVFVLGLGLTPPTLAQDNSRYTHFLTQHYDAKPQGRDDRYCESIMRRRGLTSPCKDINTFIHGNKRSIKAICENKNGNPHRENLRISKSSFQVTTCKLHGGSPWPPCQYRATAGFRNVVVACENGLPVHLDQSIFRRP

Regarding `O=c1[nH]c(=O)n([C@@H]2O[C@H](CO)[C@@H](O)[C@H]2O)cc1Cl`, in assay [1], the Ki was determined as 44.5 µM.

`O=c1ccn([C@@H]2O[C@H](COP(=O)(O)O)[C@@H](O)[C@H]2O)c(=O)[nH]1` came in with a Ki in assay [2] of 4000 µM.

For `O=c1[nH]c(=O)n([C@@H]2O[C@H](CO)[C@@H](O)[C@H]2O)cc1F` [5-FLUOROURIDINE], in assay [1], the inhibition constant (Ki) came out at 33.6 µM.

As to `Cc1cn([C@@H]2O[C@H](CO)[C@@H](O)[C@H]2O)c(=O)[nH]c1=O`, the Ki in assay [1] was 44.1 µM.

`O=c1[nH]c(=O)n(Cc2cn([C@@H]3O[C@H](CO)[C@@H](O)[C@H]3O)nn2)cc1Cl`: the Ki in assay [1] worked out at 94.8 µM.

Turning to `O=c1[nH]c(=O)n([C@@H]2O[C@H](CO)[C@@H](O)[C@H]2O)cc1Br`, the Ki in assay [1] amounted to 69.1 µM.

Consider `O=c1ccn(Cc2cn([C@@H]3O[C@H](CO)[C@@H](O)[C@H]3O)nn2)c(=O)[nH]1`, for which the Ki in assay [3] was 0.24 µM.

Consider `O=c1ccn([C@@H]2O[C@H](CO)[C@@H](O)[C@H]2O)c(=O)[nH]1` [URIDINE], for which the Ki in assay [1] amounted to 28.5 µM.

For the compound `O=c1[nH]c(=O)n(Cc2cn([C@@H]3O[C@H](CO)[C@@H](O)[C@H]3O)nn2)cc1Br`, the inhibition in assay [4] came to 20%.

Compound `O=c1ccn([C@@H]2O[C@H](COP(=O)(O)OP(=O)(O)O)[C@@H](O)[C@H]2O)c(=O)[nH]1` [URIDINE_DIPHOSPHATE] showed a Ki in assay [2] of 650 µM.

Turning to `Nc1ncnc2c1ncn2[C@@H]1O[C@H](COP(=O)(O)OP(=O)(O)O[C@H]2C[C@H](n3ccc(=O)[nH]c3=O)O[C@@H]2COP(=O)(O)O)[C@@H](OP(=O)(O)O)[C@H]1O`, the Ki worked out at 360 µM in assay [5], 0.18 µM in assay [6] and 0.027 µM in assay [7].

These data come from ChEMBL document CHEMBL2203162, “Triazole pyrimidine nucleosides as inhibitors of Ribonuclease A. Synthesis, biochemical, and structural evaluation” (Bioorg Med Chem, 2012).
